Tests used:
Aedes aegypti = assay: Dose dependent one-choice mosquito landing rate inhibition assay; format: in vivo
Description: (§1) Nepeta cataria plants were evaluated as insect repellents against Aedes aegypti and Anopholes gambiae mosquitoes in a landing rate inhibition assay against DEET as shown in FIGS. 4 and 5. A dose dependent curve was generated for all treatments and a time course analysis was performed with a crude essential oil sample. […] Between two and four hours the ability to generate 95% repellency diminished.
Mosquito eggs were reared in water at 27° C. with 80% humidity and the mosquitoes were transferred during the rearing process with an eye dropper. The A. aegypti eggs were placed in a container holding water and once hatched and formed into larvae, they were separated from the unhatched eggs and placed into fresh water. General fish food tablets were used as the energy source for the maturing mosquitoes. As the mosquitoes began to form into pupae, they were separated from the smaller less developed larvae and placed into fresh water. This container was then placed into a Bug Dorm Cage where the pupae were allowed to mature into adults. […]
Repellency was determined by a one-choice landing assay that uses the amount of mosquito landings to calculate the overall effectiveness of the candidate repellent. […] Time lapse photography recorded one image every five seconds. […]

Anopholes gambiae = assay: Dose dependent mosquito landing rate inhibition assay; format: in vivo; conditions: treatment at 1.00%, FIG. 5
Description: as §1
Repellency was determined by a one-choice landing assay that uses the amount of mosquito landings to calculate the overall effectiveness of the candidate repellent. Twenty, one day starved adult female Aedes aegypti mosquitoes were aspirated into a Bug Dorm Cage. Testing was performed between 10:00 am and 4:00 pm PST during A. aegypti's host seeking hours. A HotHands® heat pack was used as the heat source to attract the mosquitoes in the upper region of the back panel. Treatments were applied to a Whatman® filter paper and used to wrap the heat source. A control of just acetone was applied to the filter papers before and after each treatment to ensure reproducibility in mosquito behavior. […] Time lapse photography recorded one image every five seconds. A custom was used to count the mosquitoes automatically through the open source image processing software ImageJ.

house and stable flies = conditions: in vivo; cited from earlier work
[1] = tested on: house dust mite species, poultry mites; conditions: in vivo; cited from earlier work
harvester ants = conditions: body contact; cited from earlier work
[2] = tested on: two species of mosquitoes; conditions: cited from earlier work

Compound: CCN(CC)C(=O)c1cccc(C)c1 [DEET]
- decrease in landings of mosquitoes (repellency) (Aedes aegypti; treatment at 1.00% on filter paper, FIG. 4): > 95%
- decrease in landings of mosquitoes (repellency) (Anopholes gambiae): > 95%

Compound: Z, E nepetalactone
- repellency percentage compared between treatments (Aedes aegypti; treatment at 0.10%): highest repellency percentage
- repellency (house and stable flies): significant repellency
- repellency [1]: efficient in repelling
- speed of mortality compared with the other nepetalactones in catnip (harvester ants): mortality was achieved faster

Compound: CC1COC(=O)C2C(C)CCC12 (centres unmarked) [dihydronepetalactone 2]
- duration of complete protection ([2]; human subjects): up to five
- repelling efficacy compared with DEET ([2]; two species of mosquitoes): as effective at repelling two species of mosquitoes as DEET
